# Columns and labels:
# [1] = system: ERK1/2; assay: Epinephrine-stimulated ERK1/2 phosphorylation in cultured rat DRG neurons (Western analysis); assay type: cell-based
# Procedure: Trypsin was inactivated by adding 100 μg/ml soybean trypsin inhibitor and 2.5 mg/ml MgSO4. The cells were centrifuged at 300×g for 5 min and resuspended culture media containing minimal essential medium (MEM) supplemented with 10% heat-inactivated fetal calf serum, 1×MEM vitamins, and 1000 U/ml each of penicillin and streptomycin. The culture was enriched for neurons by preplating on 100 mm culture dishes pretreated with 0.1 mg/ml poly-DL-ornithine in 15 mM sodium borate buffer. After culture for 15-20 hr, the loosely attached neuronal cells were collected and plated for 3 hr on six-well plates coated with 0.1 mg/ml poly-DL-ornithine and 1 mg/ml laminin.
# After drug treatment, cells from neuron-enriched DRG cultures were collected and centrifuged at 300×g for 5 min at 4° C. […] Blots were incubated with anti-phospho-p42/44 MAP kinase antibody (diluted 1:500 in blocking buffer) overnight at 4° C. Blots were rinsed three times in PBS-T and incubated in blocking buffer containing HRP-conjugated goat anti-rabbit IgG (diluted 1:1000; Boehringer Mannheim, Indianapolis, Ind.) for 1 hr at 27° C. Immunoreactive bands were visualized by enhanced chemiluminescence (Amersham Pharmacia Biotech, Piscataway, N.J.). The membranes were then stripped of antibodies by incubation in 200 mM NaOH for 20 min at 27° C. […] After three washes in PBS-T, blots were incubated with HRP-conjugated goat anti-rabbit IgG (diluted 1:1000; Boehringer Mannheim) for 1 hr at 27° C., and immunoreactive bands were visualized by enhanced chemiluminescence and autoradiography. […] Data were normalized by dividing values obtained for phospho-ERK1 and phospho-ERK2 immunoreactivity by the value obtained for total ERK1 immunoreactivity for each sample.
# [2] = system: mechanical nociceptive threshold; details: epinephrine 100 ng, 3.82 and 4.54 N/mm^2
# [3] = system: mechanical nociceptive threshold; details: dose-response studies (Khasar et al., 1999b); cited from earlier work
# [4] = system: mechanical nociceptive threshold; details: injected intradermally (Khasar et al., 1999b); cited from earlier work
# [5] = system: mechanical nociceptive threshold; assay: Epinephrine-induced mechanical hyperalgesia, Randall-Selitto paw-withdrawal test (Example 1); details: rat, in vivo
# Source text: The nociceptive flexion reflex (Randall-Selitto paw-withdrawal test) was quantified with a Basile Analge-symeter (Stoelting, Chicago, Ill.), which applies a linearly increasing mechanical force to the dorsum of the rat's hindpaw. The mechanical nociceptive threshold was defined as the force in grams at which the rat withdrew its paw. […] They were allowed to crawl into individual cylindrical Perspex blocks and were lightly restrained there by closing both ends of the cylinder. […] The rats were allowed to acclimatize to the restrainer for 5-10 min, after which the hindpaws were exposed to the test stimulus. Three readings were taken at 5 min intervals, and their mean was considered the baseline threshold. After each drug administration, mechanical paw-withdrawal thresholds were determined again as the mean of three readings taken 20, 25, and 30 min after injection.
# Inhibitors were diluted with distilled water before intra-dermal injections into the paw using a 10 μl microsyringe (Hamilton, Reno, Nev.). Injections of peptides (1 μg/2.5 μl) were always preceded by injection of distilled water (2.5 μl) to produce hypo-osmotic shock. […] Paw-withdrawal thresholds were measured again 10, 15, and 20 min after injecting the test agent. The mean of the paw-withdrawal thresholds obtained at these three times was then taken as the mechanical nociceptive threshold at the dose of the test agent used. The effect of each dose a test agent was calculated as the percentage change from baseline.
# [6] = system: mechanical nociceptive threshold; assay: Epinephrine-induced hyperalgesia in gonad-intact and gonadectomized male and female rats (Example 2); details: for absolute decrease in threshold after epinephrine: n=18
# Procedure: The nociceptive flexion reflex was quantified using the Randall-Selitto paw pressure device (Analgesymeter, Stoetling, Chicago, Ill., USA), which applies a linearly increasing mechanical force to the dorsum of the rat's hind paw. The mechanical nociceptive threshold was defined as the force in grams at which the rat withdrew its paw. […] Baseline paw-withdrawal threshold was defined as the mean of six readings before test agents were injected. […] Each group of rats was treated with only one agonist and/or antagonist injected peripherally by the intradermal route. […] All behavioural testing was done between 10.00 and 16.00 h. […] The protein kinase inhibitor was separated from the distilled water by drawing up a small air bubble (<1 μL) into the syringe after drawing up the protein kinase inhibitor but before drawing up the distilled water.
# A stock solution of PGE2 (4 mg/mL) was made by dissolving it in 10% ethanol in normal saline; further dilution to 100 ng was made by addition of saline. Final concentration of ethanol was <10%. […] Stock solutions (1 μg/μL) of inhibitors were stored at −20° C. […] Inhibitors were injected at a concentration of 1 μg/2.5 μL.
compound,measurement,setting,value
CNC[C@H](O)c1ccc(O)c(O)c1 [epinephrine],ERK1/2 phosphorylation (representative Western blot),[1],stimulation
same,concentration at which effect on ERK phosphorylation appeared maximal,[1],1 µM
same,increase of phospho-ERK immunoreactivity over basal level,[1],~1.7 fold
same,time after which ERK phosphorylation returned to basal levels,[1],60 min
same,time at which epinephrine-evoked ERK phosphorylation was greatest,[1],5 min
same,Emax,"[1]; Rattus norvegicus, DRG neuron, 5 min, read-out: maximal response relative to response to NGF",30 to 50%
same,"response to VFH stimulation, wild-type vs PKCε mutant",[2]; female mice,similar
same,epinephrine-induced change in nociceptive response in PKCε-null vs wild-type,[2]; male mice,significantly less
same,dose producing maximal hyperalgesia,[3],100 ng
same,ED50 for lowering the nociceptive threshold,[4],~20 ng
same,decrease in mechanical nociceptive thresholds,[5],~35%
same,change in mechanical nociceptive threshold over dose range,"[6]; epinephrine 1-1000 ng intradermal, normal male and female rats",dose-dependent decrease
same,"decrease in threshold after epinephrine, gonadectomized vs gonad-intact","[6]; female rats, epinephrine 100 ng",greater
same,absolute decrease in threshold after epinephrine,[6]; female rats,72.7 ± 0.9 g
same,"decrease in paw-withdrawal threshold produced by epinephrine, gonadectomized vs gonad-intact","[6]; male rats, epinephrine 100 ng",no significant difference
same,absolute decrease in threshold after epinephrine,[6]; male rats,63.7 ± 0.9 g

# Source: patent US20030008807A1, “Novel signaling pathway for the production of inflammatory pain and neuropathy” (The Regents of the University of California, priority 2001, published 2003)
